Results taken from patent publication US12534444B2, “Treatment of cancer/inhibition of metastasis” (Celex Oncology Innovations Limited, priority 2010, dated 2026).

System: MDA-MB-231 cells
Assay: Single-cell adhesion assay (SCAMA, detachment negative pressure)
Assay type: cell-based, human
Settings: 24 hours
Protocol: FIG. 4 is a schematic illustration of the single-cell adhesion measurement apparatus (SCAMA) first described in the paper by Palmer et al. (2008). Human breast cancer cells from the MDA-MB-231 cell line were plated at a density of 2.5×10^4 cells/ml and left to settle in a cell culture dish 401 for 48 hours prior to measurements. Medium was removed and 2 ml of the drug under study was applied for 10 minutes. Adhesion was measured using a glass micropipette 402 connected to a vacuum pump 403 via plastic tubing 404. The tip of the micropipette was drawn to about 20 μm (range, 17-24 μm) tip diameter. The vacuum pump was used to create negative pressure inside a reservoir 405 so that the negative pressure could be applied to the tip of the micropipette by pressing the thumb to the open end of a sealable T-piece 406. […] The pressure was measured using a digital manometer 409 connected to a computer 410 via a RS232 cable 411. Using a micromanipulator 412, the micropipette 402 was positioned on the periphery of a single cell. […] The negative pressure required to detach the cell was recorded on the computer as a pressure spike. The peak of the spike (“detachment negative pressure” (DNP)) was used as a measure of the cell's adhesiveness. Using this technique, several recordings could be made from a single dish within minutes. […] In order to test for the reversibility of a given effect, the pharmacological agent was washed off, fresh medium was added and the plate was incubated for a further 10 minutes prior to re-measurement. Each treatment was carried out on at least two dishes of cells, at least 100 cells per dish were measured, and the experiment was repeated three times (with corresponding controls). In the single cell adhesion experiments, hypoxia was induced chemically by application of hydrogen peroxide (1-500 μM) for 24 hours.

OO [hydrogen peroxide]
mean detachment negative pressure (ΔDNP versus untreated control) (hydrogen peroxide 1 μM): approximately −9%
mean detachment negative pressure (ΔDNP versus untreated control) (hydrogen peroxide 10 μM): approximately −14%
mean detachment negative pressure (ΔDNP versus untreated control) (hydrogen peroxide 100 μM): approximately −20%
